Assay results from US6413495B1, “X-ray intercepting metal complexes of chlorin derivatives” (Meiji Seika Kaisha, Ltd., priority 1998, dated 2002).

Key:
[1] = system: CD-1 mice (male); assay: Acute toxicity by oral administration to mice; type: in vivo
Method: The acute toxicity, as tested by oral administration to CD-1 mice (male), of mono-L-aspartyl chlorin e6 tetra-sodium salt is already known to be such that its 50% lethal dose is 164 mg/kg, and thus the compound is of a low toxicity (refer to Japanese Patent Application Publication Kokai Hei 9-71531).

[2] = system: PC-10 cells originated from human lung cancer; assay: Test Example 3: X-ray radiography of PC-10 solid cancer on the back of nude mice; type: in vivo; settings: nude mice with PC-10 solid cancer on the back; procedure of Test Example 1
Method: (§1) Male Balb/c mice having a body weight of 16˜20 g (five mice per group) were inoculated, in their abdominal region, with MKSA cells to form a solid ascites carcinoma in the abdominal region of mouse. The mono-L-aspartyl chlorin e6-gold complex sodium salt (the product of Example 2 above) was administered at a dose of 0.01˜0.04 mg in the form of a physiological saline solution of said gold complex sodium salt to the cancer-bearing mice through their tail vein. At the end of one hour to three hours after the administration, the mice were anesthetized with nembutal. An X-ray beam containing the X-ray of the wavelength of 0.153 Å was irradiated from outside of the body to the abdominal region of the mice for an appropriate time.
The procedure of Test Example 1 was repeated except that the ascites carcinoma-bearing used in Test Example 1 were replaced by nude mice which had on the back of the body a solid cancer as formed by transplantation of PC-10 cells originated from human lung cancer.

[3] = system: MKSA cells (solid ascites carcinoma in the abdominal region); assay: Test Example 1: detection and therapy of tumor tissue by X-ray radiography (solid ascites carcinoma); type: in vivo, Male Balb/c mice
Method: as §1
X-ray image was formed by allowing the X-ray to pass through the abdominal region of mice and to expose and sensitize an X-ray film.
Thus, it was found and confirmed that the gold complex of the chlorin e6 derivative as administered to mice had exerted a cytocidal action to the ascites carcinoma cells upon the irradiation of X-ray to mice.

[4] = system: lesions of arteriosclerosis of artery; assay: Test Example 2: detection and therapy of lesions of arteriosclerosis by X-ray radiography; type: in vivo, rabbit; settings: 8 mg via ear vein
Method: To a rabbit having a high cholesteremia and a body weight of about 4 kg was administered 8 mg of the mono-L-aspartyl chlorin e6-gold complex sodium salt (the product of Example 2) through the ear vein. One hour after the administration, anesthesia with nembutal was done to the rabbit. Then, the whole body of the rabbit was irradiated for an appropriate time with an X-ray beam containing the X-ray of the wavelength of 0.153 Å which suited to the electron absorption of the K-shell of gold atom. The X-ray which had passed through the rabbit was allowed to sensitize an X-ray film and to produce X-ray image.

[5] = system: CD-1 mice (male); settings: oral administration; cited from earlier work

| Compound | acute toxicity upon oral administration, compared with mono-L-aspartyl chlorin e6 tetrasodium salt [1] | X-ray image of the solid cancer on X-ray film [2] | X-ray image of the solid cancer on X-ray film ([3]; 0.01~0.04 mg i.v. (tail vein), X-ray beam containing 0.153 Å irradiated 1-3 hours after administration) | dimensions of the solid cancer compared with those at the time of the X-ray photograph ([3]; one week after the X-ray irradiation, 0.01~0.04 mg i.v.) | X-ray image of the lesions of arteriosclerosis ([4]; rabbit with high cholesteremia, X-ray beam containing 0.153 Å one hour after administration) | dimensions of the lesions of arteriosclerosis compared with those at the time of X-ray irradiation ([4]; one week after the X-ray irradiation) | 50% lethal dose (acute toxicity) [5] |
| --- | --- | --- | --- | --- | --- | --- | --- |
| mono-L-aspartyl chlorin e6-gold complex sodium salt [Example 2] | substantially same as that of the mono-L-aspartyl chlorin e6 tetrasodium salt | Sharp X-ray image | sharply imaged | reduced significantly | sharp X-ray image | clearly diminished | – |
| C=Cc1c(C)c2cc3nc(c(CC(=O)N[C@@H](CC(=O)[O-])C(=O)[O-])c4[nH]c(cc5nc(cc1[nH]2)C(C)=C5CC)c(C)c4C(=O)[O-])[C@@H](CCC(=O)[O-])[C@@H]3C.[Na+].[Na+].[Na+].[Na+] [mono-L-aspartyl chlorin e6 tetra-sodium salt] | – | – | – | – | – | – | 164 mg/kg |
